In publication PMC12301034, “Design and Synthesis of Boronic Chalcones with Dual Anticancer and Anti-Inflammatory Activity” (Molecules, 2025):

Key:
Kinetic solubility = assay type: physicochemical
Description: To determine kinetic solubility, stock solutions of test compounds and controls [Amiodarone hydrochloride (Sigma-Aldrich, St. Louis, MO, USA), Diclofenac (Oakwood Chemical, Estill, SC, USA), Chloramphenicol (Sigma-Aldrich, St. Louis, MO, USA), and Itraconazole (Sigma-Aldrich, St. Louis, MO, USA)] were prepared at 10 mM in DMSO. A volume of 5 µL from each stock solution was transferred to designated wells of a 96-well incubation plate in duplicate. Subsequently, 195 µL of phosphate-buffered saline (PBS) at pH 7.4 or 2.0 was added to achieve a final compound concentration of 250 µM (final DMSO concentration ≤ 2.5%). The plate was sealed and subjected to shaking at 200 rpm for 24 ± 1 h at room temperature (25 °C). Following the incubation period, the plate was centrifuged at 3000 rpm for 15 min at 25 °C to remove precipitates. A 100 µL aliquot of the supernatant from each well was transferred to a corresponding well in a new 96-well plate. The samples were subsequently analyzed by an LCMS-8045 system (Shimazu, Kyoto, Japan). To quantify the solubilized fraction, a calibration curve was prepared for each test compound and control. From the 10 mM stock solution, an intermediate standard solution (0.5 mM) was prepared in a 1:1 acetonitrile:water mixture. Serial dilutions of this intermediate solution were performed to obtain final concentrations of 50, 40, 20, 2, and 1 µM. […]

[1] = Partition coefficient (Log P), OECD 117 HPLC method

solubility class (Kinetic solubility; kinetic solubility pH 7.4): moderate-to-high solubility | solubility at 24 h (Kinetic solubility; phosphate-buffered saline, aqueous buffer, kinetic from dmso stock, PBS pH 7.4, 24 h, 25 °C, read-out: Kinect Solubility (KS) pH = 7.4): > 39.6 µg/mL | chromatographic logP [1]: 2.92
Compound: COc1cccc(C(=O)/C=C/c2cccc(B(O)O)c2)c1 [Compound 5, (E)-(3-(3-(3-methoxyphenyl)-3-oxoprop-1-en-1-yl)phenyl)boronic acid]
